Experiments:
Type in all cases: cell-based
Settings in all cases: 7 days at 22° C.
[1] = test system: Enterococcus faecalis (Ef) ATCC 33186; test: Challenge test (artificial contamination) in aqueous solution, E. faecalis
Protocol: (§1) The antimicrobial efficacy of compounds of formula (I) was evaluated via the challenge test or artificial contamination method after having introduced said compounds into water. The method of the challenge test consists of an artificial contamination of the sample with microbial strains from collection (bacteria, yeasts and moulds) and of an evaluation of the number of revivable microorganisms seven days after inoculation. […] 5 pure cultures of microorganisms are used. [table] The strains of gram−bacteria (Escherichia coli and Pseudomonas aeruginosa), gram+bacterium (Enterococcus faecalis), yeast (Candida albicans), and mould (Aspergillus niger) are inoculated into subculturing medium, respectively the day before inoculation for the bacteria and the yeast, and 5 days before inoculation for the mould. On the day of inoculation: • a suspension in tryptone salt diluent is prepared, respectively, for the bacteria and the yeast, so as to obtain by spectrophotometer a suspension with an optical density of between 35% and 45% of transmitted light at 544 nm; • for the mould, the spores are collected by washing the agar with 6 to 7 ml of harvesting solution and the suspension is recovered in a sterile tube or flask. After having homogenized the microbial suspension, 0.2 ml of inoculum (the suspensions are used pure: between 1×10^8 and 3×10^8 CFU per ml) are placed in each pill bottle and the microbial suspension is completely homogenized in the 20 g of product (=aqueous solution containing the compounds of formula (I) at the concentrations indicated) using a spatula. The content of microorganisms present in the product corresponds after homogenization to a concentration of 10^6 microorganisms per gram of product, i.e. inoculation to 1% of an inoculum containing 10^8 microorganisms per ml. After 7 days of contact time between the microorganisms and the product at 22° C.±2° C. and in the dark, ten-fold dilutions are carried out and the number of revivable microorganisms remaining in the product is counted.

[2] = test system: Aspergillus niger (An) ATCC 6275; test: Challenge test (artificial contamination) in aqueous solution, A. niger
Protocol: as §1

[3] = test system: Pseudomonas aeruginosa (Pa) ATCC 19429; test: Challenge test (artificial contamination) in aqueous solution, P. aeruginosa
Protocol: as §1

[4] = test system: Escherichia coli (Ec) ATCC 8739; test: Challenge test (artificial contamination) in aqueous solution, E. coli
Protocol: as §1

[5] = test system: Candida albicans (Ca) ATCC 10231; test: Challenge test (artificial contamination) in aqueous solution, C. albicans
Protocol: as §1

[6] = content 0.01% in water, final pH 7, inoculation level 10^6 microorganisms/g
[7] = content 0.05% in water, final pH 7, inoculation level 10^6 microorganisms/g
[8] = content 0.1% in water, final pH 7.2, inoculation level 10^6 microorganisms/g
[9] = content 0.25% in water, final pH 6.9, inoculation level 10^6 microorganisms/g
[10] = content 0.5% in water, final pH 7.4, inoculation level 10^6 microorganisms/g
[11] = content 0.75% in water, final pH 7.4, inoculation level 10^6 microorganisms/g
[12] = content 1% in water, final pH 7.5, inoculation level 10^6 microorganisms/g
[13] = content 1% in water, final pH 6.6, inoculation level 10^6 microorganisms/g

## Cl.NCCOCc1ccccc1 [Compound A]
[1]; [6]
  No. of CFU/gram of product at T7 days, E. faecalis: 4.1 × 10^5 CFU/gram of product
[1]; [7]
  No. of CFU/gram of product at T7 days, E. faecalis: 3.3 × 10^5 CFU/gram of product
[1]; [8]
  No. of CFU/gram of product at T7 days, E. faecalis: 6.9 × 10^4 CFU/gram of product
[1]; [9]
  No. of CFU/gram of product at T7 days, E. faecalis: 1.2 × 10^3 CFU/gram of product
[1]; [10]
  No. of CFU/gram of product at T7 days, E. faecalis: <200 CFU/gram of product
[1]; [11]
  No. of CFU/gram of product at T7 days, E. faecalis: <200 CFU/gram of product
[1]; [12]
  No. of CFU/gram of product at T7 days, E. faecalis: <200 CFU/gram of product
[2]; [6]
  No. of CFU/gram of product at T7 days, A. niger: 1.4 × 10^6 CFU/gram of product
[2]; [7]
  No. of CFU/gram of product at T7 days, A. niger: 1.3 × 10^6 CFU/gram of product
[2]; [8]
  No. of CFU/gram of product at T7 days, A. niger: 1.0 × 10^6 CFU/gram of product
[2]; [9]
  No. of CFU/gram of product at T7 days, A. niger: 1.0 × 10^6 CFU/gram of product
[2]; [10]
  No. of CFU/gram of product at T7 days, A. niger: 6.2 × 10^5 CFU/gram of product
[2]; [11]
  No. of CFU/gram of product at T7 days, A. niger: 1.6 × 10^5 CFU/gram of product
[2]; [12]
  No. of CFU/gram of product at T7 days, A. niger: 3.6 × 10^4 CFU/gram of product
[3]; [6]
  No. of CFU/gram of product at T7 days, P. aeruginosa: 9.0 × 10^6 CFU/gram of product
[3]; [7]
  No. of CFU/gram of product at T7 days, P. aeruginosa: 1.9 × 10^6 CFU/gram of product
[3]; [8]
  No. of CFU/gram of product at T7 days, P. aeruginosa: 1.5 × 10^5 CFU/gram of product
[3]; [9]
  No. of CFU/gram of product at T7 days, P. aeruginosa: 3.0 × 10^3 CFU/gram of product
[3]; [10]
  No. of CFU/gram of product at T7 days, P. aeruginosa: <200 CFU/gram of product
[3]; [11]
  No. of CFU/gram of product at T7 days, P. aeruginosa: <200 CFU/gram of product
[3]; [12]
  No. of CFU/gram of product at T7 days, P. aeruginosa: <200 CFU/gram of product
[4]; [6]
  No. of CFU/gram of product at T7 days, E. coli: 7.4 × 10^6 CFU/gram of product
[4]; [7]
  No. of CFU/gram of product at T7 days, E. coli: 6.2 × 10^6 CFU/gram of product
[4]; [8]
  No. of CFU/gram of product at T7 days, E. coli: 1.9 × 10^6 CFU/gram of product
[4]; [9]
  No. of CFU/gram of product at T7 days, E. coli: 2.8 × 10^3 CFU/gram of product
[4]; [10]
  No. of CFU/gram of product at T7 days, E. coli: <200 CFU/gram of product
[4]; [11]
  No. of CFU/gram of product at T7 days, E. coli: <200 CFU/gram of product
[4]; [12]
  No. of CFU/gram of product at T7 days, E. coli: <200 CFU/gram of product
[5]; [6]
  No. of CFU/gram of product at T7 days, C. albicans: 3.2 × 10^6 CFU/gram of product
[5]; [7]
  No. of CFU/gram of product at T7 days, C. albicans: 3.0 × 10^6 CFU/gram of product
[5]; [8]
  No. of CFU/gram of product at T7 days, C. albicans: 2.8 × 10^6 CFU/gram of product
[5]; [9]
  No. of CFU/gram of product at T7 days, C. albicans: 2.3 × 10^6 CFU/gram of product
[5]; [10]
  No. of CFU/gram of product at T7 days, C. albicans: 1.3 × 10^6 CFU/gram of product
[5]; [11]
  No. of CFU/gram of product at T7 days, C. albicans: 5.8 × 10^3 CFU/gram of product
[5]; [12]
  No. of CFU/gram of product at T7 days, C. albicans: <200 CFU/gram of product

## Cl.c1ccc(CNCCOCc2ccccc2)cc1 [Compound B]
[1]; [13]
  No. of CFU/gram of product at T7 days, E. faecalis: <200 CFU/gram of product
[2]; [13]
  No. of CFU/gram of product at T7 days, A. niger: <200 CFU/gram of product
[3]; [13]
  No. of CFU/gram of product at T7 days, P. aeruginosa: <200 CFU/gram of product
[4]; [13]
  No. of CFU/gram of product at T7 days, E. coli: <200 CFU/gram of product
[5]; [13]
  No. of CFU/gram of product at T7 days, C. albicans: <200 CFU/gram of product
